The assay concerns L1210 leukemia ip in BDF1 mice, survival T/C. As to the kind of experiment: NCI In Vivo Anticancer Drug Screen. Data for tumor model L1210 Leukemia (intraperitoneal) in B6D2F1 (BDF1) mice. Conditions: endpoint: mean survival time, higher = longer survival. The method in brief:
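Tumor cells were implanted, animals were treated, and survival was followed. The result divides the treated measurement by the vehicle-control measurement.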

Setting [1] is: dose: 50.0 mg/kg/injection, schedule: Q01DX009 (ip), vehicle: saline.
[2] abbreviates: dose: 100.0 mg/kg/injection, schedule: Q04DX003 (ip), vehicle: saline.
The mark [3] stands for this setting: dose: 200.0 mg/kg/injection, schedule: Q04DX003 (ip), vehicle: saline.
[4] abbreviates: dose: 100.0 mg/kg/injection, schedule: Q01DX009 (ip), vehicle: saline.
[5] abbreviates: dose: 100.0 mg/kg/injection, schedule: Q04DX003 (ip), vehicle: saline with Tween-80.
Where [6] appears, read: dose: 400.0 mg/kg/injection, schedule: Q04DX003 (ip), vehicle: saline.
Where [7] appears, read: dose: 200.0 mg/kg/injection, schedule: Q04DX003 (ip), vehicle: saline with Tween-80.
Where [8] appears, read: dose: 400.0 mg/kg/injection, schedule: Q04DX003 (ip), vehicle: saline with Tween-80.
[9] abbreviates: dose: 12.5 mg/kg/injection, schedule: Q01DX009 (ip), vehicle: Klucel (hydroxypropylcellulose) (HPC).
Setting [10] is: dose: 25.0 mg/kg/injection, schedule: Q01DX009 (ip), vehicle: Klucel (hydroxypropylcellulose) (HPC).
[11] abbreviates: dose: 100.0 mg/kg/injection, schedule: Q04DX002 (ip), vehicle: Klucel (hydroxypropylcellulose) (HPC).
The mark [12] stands for this setting: dose: 200.0 mg/kg/injection, schedule: Q04DX002 (ip), vehicle: Klucel (hydroxypropylcellulose) (HPC).
Setting [13] is: dose: 400.0 mg/kg/injection, schedule: Q04DX002 (ip), vehicle: Klucel (hydroxypropylcellulose) (HPC).
Setting [14] is: dose: 100.0 mg/kg/injection, schedule: Q01DX009 (ip), vehicle: saline with Tween-80.
Setting [15] is: dose: 200.0 mg/kg/injection, schedule: Q01DX009 (ip), vehicle: saline with Tween-80.
The mark [16] stands for this setting: dose: 400.0 mg/kg/injection, schedule: Q01DX009 (ip), vehicle: saline with Tween-80.
The mark [17] stands for this setting: dose: 100.0 mg/kg/injection, schedule: Q04DX003 (ip), vehicle: Klucel (hydroxypropylcellulose) (HPC).
Where [18] appears, read: dose: 200.0 mg/kg/injection, schedule: Q04DX003 (ip), vehicle: Klucel (hydroxypropylcellulose) (HPC).

Inconclusive results and toxic doses are left out.

In the case of `CC1(C)/C(=N\N=C2/C3CCC(C3)C2(C)C)C2CCC1C2`, the T/C runs as follows: (dose: 12.5 mg/kg/injection, schedule: Q01DX009 (ip), vehicle: saline) 105 % of control; (dose: 25.0 mg/kg/injection, schedule: Q01DX009 (ip), vehicle: saline) 100 % of control; (dose: 50.0 mg/kg/injection, schedule: Q01DX009 (ip), vehicle: saline with Tween-80) 106 % of control; under setting [1], 109 % of control; under setting [2], 109 % of control; under setting [3], 108 % of control.

Turning to `O=C(O)C1CCSS1` (centres undefined), the T/C under setting [1] was 89 % of control, the T/C under setting [4] was 92 % of control, the T/C under setting [2] is 101 % of control and the T/C under setting [3] is 104 % of control.

For `CC[N+]1(Cc2ccccc2)CC2(CCCCC2)ON2C1CC(C)C2(C)C` (centres undefined), the T/C under setting [5] was 91 % of control.

With `Cc1cc(C)[nH]c(=O)n1`, the T/C by setting is: under setting [4], 98 % of control; under setting [2], 100 % of control; (dose: 200.0 mg/kg/injection, schedule: Q01DX009 (ip), vehicle: saline) 88 % of control; under setting [3], 94 % of control; under setting [6], 96 % of control.

In the case of `CC(=O)Nc1ccc(C(=O)O)cc1O`, the T/C is 92 % of control under setting [2], 92 % of control under setting [3] and 95 % of control under setting [6].

With `NC(=O)N1CCCCN1C(N)=O`, the T/C runs as follows: (dose: 100.0 mg/kg/injection, schedule: Q04DX002 (ip), vehicle: saline) 99 % of control; (dose: 200.0 mg/kg/injection, schedule: Q04DX002 (ip), vehicle: saline) 111 % of control; (dose: 400.0 mg/kg/injection, schedule: Q04DX002 (ip), vehicle: saline) 92 % of control.

For `COc1cc(C)cccc1=O`, the T/C is 107 % of control (dose: 50.0 mg/kg/injection, schedule: Q01DX001 (ip), vehicle: carboxymethylcellulose (CMC)); 107 % of control (dose: 100.0 mg/kg/injection, schedule: Q01DX001 (ip), vehicle: carboxymethylcellulose (CMC)); 96 % of control (dose: 200.0 mg/kg/injection, schedule: Q01DX001 (ip), vehicle: carboxymethylcellulose (CMC)); 98 % of control (dose: 400.0 mg/kg/injection, schedule: Q01DX001 (ip), vehicle: carboxymethylcellulose (CMC)).

On to `CNC(=O)Oc1cccc(NC(=O)C2CC2)c1`, for which the T/C is 94 % of control under setting [5], 94 % of control under setting [7] and 96 % of control under setting [8].

Take `CC(C)CCNc1ncnc2[nH]ncc12`: the T/C is, setting by setting: under setting [9], 117 % of control; under setting [10], 104 % of control; (dose: 50.0 mg/kg/injection, schedule: Q01DX009 (ip), vehicle: Klucel (hydroxypropylcellulose) (HPC)) 109 % of control.

Turning to `O=C(O)C1CCCCC1C(=O)NCc1ccccc1Cl` (centres undefined), the T/C under setting [11] is 100 % of control, the T/C under setting [12] is 100 % of control and the T/C under setting [13] is 96 % of control.

Turning to `CC1(C)N=C(N)N=C(N)N1c1cccc(OCc2cccc([N+](=O)[O-])c2)c1`, the T/C was 104 % of control (dose: 5.0 mg/kg/injection, schedule: Q01DX001 (ip), vehicle: saline); 98 % of control (dose: 10.0 mg/kg/injection, schedule: Q01DX001 (ip), vehicle: saline); 110 % of control (dose: 20.0 mg/kg/injection, schedule: Q01DX001 (ip), vehicle: saline); 89 % of control (dose: 40.0 mg/kg/injection, schedule: Q01DX001 (ip), vehicle: saline); 96 % of control (dose: 100.0 mg/kg/injection, schedule: Q01DX001 (ip), vehicle: saline).

`c1coc(CNCNCc2ccco2)c1`: the T/C is 94 % of control (dose: 155.0 mg/kg/injection, schedule: Q01DX Z (ip), vehicle: methylcellulose (MC)); 105 % of control (dose: 233.0 mg/kg/injection, schedule: Q01DX Z (ip), vehicle: methylcellulose (MC)); 100 % of control (dose: 350.0 mg/kg/injection, schedule: Q01DX Z (ip), vehicle: methylcellulose (MC)).

`CC1=CC(=O)C(C)(C)C=C1`: the T/C is 104 % of control under setting [14]; 108 % of control under setting [5]; 101 % of control under setting [15]; 100 % of control under setting [7]; 96 % of control under setting [16].

Take `O=C(NCCCl)Nn1c2ccccc2c2ccccc21`: the T/C runs as follows: (dose: 100.0 mg/kg/injection, schedule: Q01DX009 (ip), vehicle: Klucel (hydroxypropylcellulose) (HPC)) 86 % of control; under setting [17], 104 % of control; (dose: 200.0 mg/kg/injection, schedule: Q01DX009 (ip), vehicle: Klucel (hydroxypropylcellulose) (HPC)) 95 % of control; under setting [18], 98 % of control; (dose: 400.0 mg/kg/injection, schedule: Q01DX009 (ip), vehicle: Klucel (hydroxypropylcellulose) (HPC)) 88 % of control; (dose: 400.0 mg/kg/injection, schedule: Q04DX003 (ip), vehicle: Klucel (hydroxypropylcellulose) (HPC)) 106 % of control.

As for `COc1ccc([N+](=O)[O-])cc1NS(=O)(=O)c1ccc2ccccc2c1`, the T/C was 104 % of control under setting [11], 100 % of control under setting [12] and 115 % of control under setting [13].

On to `COc1cccc(C2CCN(C)C2)c1` (centres undefined), for which the T/C reads like this: (dose: 6.25 mg/kg/injection, schedule: Q01DX009 (ip), vehicle: Klucel (hydroxypropylcellulose) (HPC)) 110 % of control; under setting [9], 108 % of control; under setting [10], 103 % of control; under setting [17], 105 % of control; under setting [18], 103 % of control.

With `CCCCCP(=S)(CCCC)CCCCC`, the T/C by setting is: under setting [11], 98 % of control; under setting [12], 94 % of control; under setting [13], 94 % of control.

With `Cc1ccc(C)c(CCl)c1`, the T/C runs as follows: (dose: 75.0 mg/kg/injection, schedule: Q01DX001 (ip), vehicle: saline) 101 % of control; (dose: 150.0 mg/kg/injection, schedule: Q01DX001 (ip), vehicle: saline) 95 % of control.

Consider `CC1(NC(=O)N(CCCl)N=O)CCCC1`, for which the T/C (dose: 16.0 mg/kg/injection, schedule: Q01DX001 (ip), vehicle: carboxymethylcellulose (CMC)) was 95 % of control; the T/C (dose: 31.0 mg/kg/injection, schedule: Q01DX001 (ip), vehicle: carboxymethylcellulose (CMC)) is 113 % of control; the T/C (dose: 62.0 mg/kg/injection, schedule: Q01DX001 (ip), vehicle: carboxymethylcellulose (CMC)) was 157 % of control; the T/C (dose: 125.0 mg/kg/injection, schedule: Q01DX001 (ip), vehicle: carboxymethylcellulose (CMC)) is 282 % of control; the T/C (dose: 250.0 mg/kg/injection, schedule: Q01DX001 (ip), vehicle: carboxymethylcellulose (CMC)) is 329 % of control.

Regarding `CC(=O)NC(O)C(Cl)(Cl)Cl` (centres undefined), the T/C runs as follows: (dose: 100.0 mg/kg/injection, schedule: Q01DX009 (ip), vehicle: saline sonified) 102 % of control; under setting [5], 100 % of control; (dose: 200.0 mg/kg/injection, schedule: Q01DX009 (ip), vehicle: saline sonified) 95 % of control; under setting [7], 96 % of control; (dose: 400.0 mg/kg/injection, schedule: Q01DX009 (ip), vehicle: saline sonified) 93 % of control; under setting [8], 110 % of control.

Turning to `Cc1c(Cl)cccc1NC(=O)COc1ccc(Cl)cc1Cl`, the T/C is 88 % of control under setting [14], 93 % of control under setting [15] and 98 % of control under setting [16].

For the compound `CCCCCCCCOC(=O)c1[nH]cnc1/N=N/N(C)CCCC`, the T/C was 107 % of control (dose: 100.0 mg/kg/injection, schedule: Q01DX001 (ip), vehicle: other); 107 % of control (dose: 200.0 mg/kg/injection, schedule: Q01DX001 (ip), vehicle: other); 102 % of control (dose: 400.0 mg/kg/injection, schedule: Q01DX001 (ip), vehicle: other).

Source of the values: PubChem BioAssay AID248 (DTP/NCI, 2004).
